# Measured values published in patent publication US20070249590A1, “Substituted indolo[2,3-a]pyrrolo[3,4-c]carbazole compounds useful in treating kinase disorders” (priority 2005, published 2007).
# Biological target: T1, JAK3 (JH1 and JH2 domain) (Homo sapiens, UniProt P52333)
# T1 sequence (P52333 521-1111 limits assumed): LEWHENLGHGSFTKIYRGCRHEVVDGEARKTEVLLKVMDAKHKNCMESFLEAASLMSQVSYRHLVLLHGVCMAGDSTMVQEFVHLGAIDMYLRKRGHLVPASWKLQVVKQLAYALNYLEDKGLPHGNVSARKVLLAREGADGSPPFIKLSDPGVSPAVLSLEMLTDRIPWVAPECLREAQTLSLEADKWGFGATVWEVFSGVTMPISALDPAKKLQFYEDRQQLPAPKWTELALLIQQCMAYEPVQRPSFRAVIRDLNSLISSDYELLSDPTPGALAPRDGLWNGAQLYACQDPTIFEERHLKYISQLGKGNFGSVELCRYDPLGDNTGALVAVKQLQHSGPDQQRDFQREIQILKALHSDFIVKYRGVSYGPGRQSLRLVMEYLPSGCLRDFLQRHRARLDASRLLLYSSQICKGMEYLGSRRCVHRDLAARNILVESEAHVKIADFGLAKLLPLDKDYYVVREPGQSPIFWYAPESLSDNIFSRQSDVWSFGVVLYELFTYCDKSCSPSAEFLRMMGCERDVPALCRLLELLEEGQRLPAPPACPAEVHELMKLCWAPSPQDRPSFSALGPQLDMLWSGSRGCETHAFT
# Experiment: JAK3 Kinase Assay (ELISA of peptide substrate phosphorylation)
# Assay type: biochemical
# Conditions: purified JAK3 enzyme, 10 μM ATP, biotinylated peptide substrate, 1 hour at room temperature
# Procedure, shortened: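 Sf21-baculovirus-expressed JAK3 (JH1+JH2), glutathione-bead purified, with biotinylated peptide substrate (in buffer containing 10 μM ATP) in HEPES pH 7.5/MgCl2/DTT, 1 h RT. Product was captured on Neutravidin, detected with HRP anti-phosphotyrosine (PY99)/TMB, OD 450/650 nm. Triplicate 16-point half-log series from 200 μM gave IC50; otherwise % inhibition at 1 μM.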
row,SMILES,IC50 [nM]
1,"O=C1NC(=O)c2c1c1c3ccccc3n3c1c1c2c2ccccc2n1CC(OC(=O)N1CCN(c2ccncc2)CC1)C(O)C3 (centres unmarked) [Cpd 96, 12,13-{2-[(4-pyridin-4-yl-piperazin-1-yl)carbonyloxy]-3-hydroxy-butan-1,4-yl}-12,13-dihydro-5,7-dioxo-6H-indolo[2,3-a]pyrrolo[3,4-c]carbazole]",295
2,"CN(C)CCCN1CCN(C(=O)OC2Cn3c4ccccc4c4c5c(c6c7ccccc7n(c6c43)CC2O)C(=O)NC5=O)CC1 (centres unmarked) [Cpd 97, 12,13-(2-{[4-(3-dimethylamino-prop-1-yl)piperazin-1-yl]carbonyloxy}-3-hydroxy-butan-1,4-yl)-12,13-dihydro-5,7-dioxo-6H-indolo[2,3-a]pyrrolo[3,4-c]carbazole]",175
3,"O=C1NC(=O)c2c1c1c3ccccc3n3c1c1c2c2ccccc2n1CC(OC(=O)N1CCOCC1)C(O)C3 (centres unmarked) [Cpd 98, 12,13-[2-(morpholin-4-yl-carbonyloxy)-3-hydroxy-butan-1,4-yl]-12,13-dihydro-5,7-dioxo-6H-indolo[2,3-a]pyrrolo[3,4-c]carbazole]",108
4,"O=C1NC(=O)c2c1c1c3ccccc3n3c1c1c2c2ccccc2n1CC(OC(=O)N1CCCCC1)C(O)C3 (centres unmarked) [Cpd 99, 12,13-[2-(piperidin-1-yl-carbonyloxy)-3-hydroxy-butan-1,4-yl]-12,13-dihydro-5,7-dioxo-6H-indolo[2,3-a]pyrrolo[3,4-c]carbazole]",184
5,"CN(C)C1CCN(C(=O)OC2Cn3c4ccccc4c4c5c(c6c7ccccc7n(c6c43)CC2O)C(=O)NC5=O)C1 (centres unmarked) [Cpd 100, 12,13-{2-[(3-dimethyl-pyrrolidin-1-yl)carbonyloxy]-3-hydroxy-butan-1,4-yl}-12,13-dihydro-5,7-dioxo-6H-indolo[2,3-a]pyrrolo[3,4-c]carbazole]",173
6,"O=C1NC(=O)c2c1c1c3ccccc3n3c1c1c2c2ccccc2n1CC(OC(=O)N1CCN(C2CCCCC2)CC1)C(O)C3 (centres unmarked) [Cpd 101, 12,13-{2-[(4-cyclohexyl-piperazin-1-yl)carbonyloxy]-3-hydroxy-butan-1,4-yl}-12,13-dihydro-5,7-dioxo-6H-indolo[2,3-a]pyrrolo[3,4-c]carbazole]",1100
7,"O=C1NC(=O)c2c1c1c3ccccc3n3c1c1c2c2ccccc2n1CC(OC(=O)N1CCN(c2ccccc2)CC1)C(O)C3 (centres unmarked) [Cpd 102, 12,13-{2-[(4-phenyl-piperazin-1-yl)carbonyloxy]-3-hydroxy-butan-1,4-yl}-12,13-dihydro-5,7-dioxo-6H-indolo[2,3-a]pyrrolo[3,4-c]carbazole]",81
8,"O=C1NC(=O)c2c1c1c3ccccc3n3c1c1c2c2ccccc2n1CC(OC(=O)N1CCN(C(c2ccccc2)c2ccccc2)CC1)C(O)C3 (centres unmarked) [Cpd 103, 12,13-{2-[(4-benzhydryl-piperazin-1-yl)carbonyloxy]-3-hydroxy-butan-1,4-yl}-12,13-dihydro-5,7-dioxo-6H-indolo[2,3-a]pyrrolo[3,4-c]carbazole]",436
9,"O=C1NC(=O)c2c1c1c3ccccc3n3c1c1c2c2ccccc2n1CC(OC(=O)N1CCN(CCO)CC1)C(O)C3 (centres unmarked) [Cpd 104, 12,13-(2-{[4-(2-hydroxy-ethyl)piperazin-1-yl]carbonyloxy}-3-hydroxy-butan-1,4-yl)-12,13-dihydro-5,7-dioxo-6H-indolo[2,3-a]pyrrolo[3,4-c]carbazole]",127
10,"NS(=O)(=O)c1ccc(CCNC(=O)OC2Cn3c4ccccc4c4c5c(c6c7ccccc7n(c6c43)CC2O)C(=O)NC5=O)cc1 (centres unmarked) [Cpd 105, 12,13-(2-{[2-(4-sulfonylamino-phenyl)ethyl]carbamoyloxy}-3-hydroxy-butan-1,4-yl)-12,13-dihydro-5,7-dioxo-6H-indolo[2,3-a]pyrrolo[3,4-c]carbazole]",15
11,"CN(C)CCN(C)C(=O)OC1Cn2c3ccccc3c3c4c(c5c6ccccc6n(c5c32)CC1O)C(=O)NC4=O (centres unmarked) [Cpd 107, 12,13-(2-{[N-methyl-N-(2-dimethylamino-ethyl)]carbamoyloxy}-3-hydroxy-butan-1,4-yl)-12,13-dihydro-5,7-dioxo-6H-indolo[2,3-a]pyrrolo[3,4-c]carbazole]",180
